Experimental data published in patent US8173636B2, “Hydroxylthienoquinolones and related compounds as anti-infective agents” (Achillion Pharmaceuticals, Inc., priority 2009, dated 2012).
Converted amounts (≈) assume the structure as drawn.

Tests used:
[1] = test system: S. aureus ATCC 29213; test: Minimum inhibitory concentration (MIC) assay, broth microdilution, MSSA; assay type: cell-based; conditions: Staphylococcus aureus, Table I
Experimental: (§1) The antimicrobial activity of the compounds of the invention may be evaluated by a number of methods, including the following visual minimum inhibitory concentration (MIC) assay. This assay determines the minimum concentration of compound required to inhibit growth of a bacterial strain.
(§2) Whole-cell antibacterial activity is determined by broth microdilution using conditions recommended by the NCCLS (see National Committee for Clinical Laboratory Standards. 2001. Performance standards for antimicrobial susceptibility testing: 11th informational supplement. Vol. 21, no. 1, M100-S11. National Committee for Clinical Laboratory Standards, Wayne, Pa.). Test compounds are dissolved in DMSO and diluted 1:50 in Mueller-Hinton II broth (Becton-Dickinson) to produce a 256 μg/ml stock solution. In a 96-well microtiter plate, the compound solution is serially two-fold diluted in Mueller-Hinton II broth. After the compounds are diluted, a 50 μl aliquot of the test organism (˜1×10^6 cfu/mL) is added to each well of the microtiter plate. The final test concentrations ranges from 0.125-128 μg/mL. Inoculated plates are incubated in ambient air at 37° C. for 18 to 24 hours. The organisms selected for testing included laboratory strains S. aureus ATCC 29213 and E. coli ATCC 25922 (strains purchased from American Type Culture Collection, Manassas, Va.) m, S. aureus FQR700699, and Paeruginosa 27853. The minimum inhibitory concentration (MIC) is determined as the lowest concentration of compound that inhibited visible growth of the test organism.

[2] = test system: fluoroquinolone-resistant S. aureus ATCC 700699; test: Minimum inhibitory concentration (MIC) assay, broth microdilution, MRSA; assay type: cell-based; conditions: Staphylococcus aureus; fluoroquinolone-resistant S. aureus ATCC 700699; Table I; read-out: MRSA MIC
Experimental: as §1, §2

| MIC [1] [µg/mL] | MIC [2] [µg/mL] | Structure (SMILES) |
| --- | --- | --- |
| 0.13 (≈ 0.303 µM) | 1 (≈ 2.33 µM) | COc1c(N2CCN(C)CC2)c(F)cc2c(=O)c3c(O)c(C#N)sc3n(C3CC3)c12 [Cmp 26, 9-cyclopropyl-6-fluoro-3-hydroxyl-8-methoxy-7-(4-methylpiperazin-1-yl)-4-oxo-4,9-dihydrothieno[2,3-b] quinoline-2-carbonitrile] |
| 0.5 (≈ 1.15 µM) | 8 (≈ 18.3 µM) | COc1c(N2C[C@@H]3CCCN[C@@H]3C2)ccc2c(=O)c3c(O)c(C#N)sc3n(C3CC3)c12 [Cmp 27, 9-cyclopropyl-3-hydroxyl-8-methoxy-4-oxo-7-((4aS,7aS)-tetrahydro-1H-pyrrolo[3,4-b]pyridin-6(2H,7H,7aH)-yl)-4,9-dihydrothieno[2,3-b]quinoline-2-carbonitrile] |
| 0.03 (≈ 0.07 µM) | 0.5 (≈ 1.17 µM) | COc1c(N2CCC(N)CC2)c(F)cc2c(=O)c3c(O)c(C#N)sc3n(C3CC3)c12 [Cmp 29, 7-(4-aminopiperidin-1-yl)-9-cyclopropyl-6-fluoro-3-hydroxyl-8-methoxy-4-oxo-4,9-dihydrothieno[2,3-b]quinoline-2-carbonitrile] |
| 0.03 (≈ 0.0638 µM) | 0.13 (≈ 0.276 µM) | CCN[C@@H](C)[C@@H]1CCN(c2c(F)cc3c(=O)c4c(O)c(C#N)sc4n(C4CC4)c3c2OC)C1 [Cmp 30, 9-cyclopropyl-7-((R)-3-((S)-1-(ethylamino)ethyl)pyrrolidin-1-yl)-6-fluoro-3-hydroxyl-8-methoxy-4-oxo-4,9-dihydrothieno [2,3-b]quinoline-2-carbonitrile] |
| 0.03 (≈ 0.0657 µM) | 0.25 (≈ 0.548 µM) | CN[C@@H](C)[C@@H]1CCN(c2c(F)cc3c(=O)c4c(O)c(C#N)sc4n(C4CC4)c3c2OC)C1 [Cmp 31, 9-cyclopropyl-6-fluoro-3-hydroxyl-8-methoxy-7-((R)-3-((S)-1-(methylamino)ethyl)pyrrolidin-1-yl)-4-oxo-4,9-dihydrothieno [2,3-b]quinoline-2-carbonitrile] |
| 0.13 (≈ 0.274 µM) | 0.5 (≈ 1.05 µM) | COc1c(N2CC[C@@H](C(C)(C)N)C2)c(F)cc2c(=O)c3c(O)c(C(N)=O)sc3n(C3CC3)c12 [Cmp 32, (R)-7-(3-(2-aminopropan-2-yl)pyrrolidin-1-yl)-9-cyclopropyl-6-fluoro-3-hydroxyl-8-methoxy-4-oxo-4,9-dihydrothieno [2,3-b]quinoline-2-carboxamide] |
| 0.06 (≈ 0.128 µM) | 0.5 (≈ 1.06 µM) | COc1c(N2CC[C@@H]([C@H](C)N(C)C)C2)c(F)cc2c(=O)c3c(O)c(C#N)sc3n(C3CC3)c12 [Cmp 33, 9-cyclopropyl-7-((R)-3-((S)-1-(dimethylamino)ethyl)pyrrolidin-1-yl)-6-fluoro-3-hydroxyl-8-methoxy-4-oxo-4,9-dihydrothieno [2,3-b]quinoline-2-carbonitrile] |
| 0.06 (≈ 0.128 µM) | 0.5 (≈ 1.06 µM) | CNC(C)(C)[C@@H]1CCN(c2c(F)cc3c(=O)c4c(O)c(C#N)sc4n(C4CC4)c3c2OC)C1 [Cmp 34, (R)-9-cyclopropyl-6-fluoro-3-hydroxyl-8-methoxy-7-(3-(2-(methylamino)propan-2-yl)pyrrolidin-1-yl)-4-oxo-4,9-dihydrothieno[2,3-b]quinoline-2-carbonitrile] |
| 0.06 (≈ 0.124 µM) | 0.5 (≈ 1.03 µM) | CCNC(C)(C)[C@@H]1CCN(c2c(F)cc3c(=O)c4c(O)c(C#N)sc4n(C4CC4)c3c2OC)C1 [Cmp 35, (R)-9-cyclopropyl-7-(3-(2-(ethylamino)propan-2-yl)pyrrolidin-1-yl)-6-fluoro-3-hydroxyl-8-methoxy-4-oxo-4,9-dihydrothieno [2,3-b]quinoline-2-carbonitrile] |
| 0.25 (≈ 0.516 µM) | 2 (≈ 4.13 µM) | COc1c(N2CC[C@@H](C(C)(C)N(C)C)C2)c(F)cc2c(=O)c3c(O)c(C#N)sc3n(C3CC3)c12 [Cmp 36, (R)-9-cyclopropyl-7-(3-(2-(dimethylamino)propan-2-yl)pyrrolidin-1-yl)-6-fluoro-3-hydroxyl-8-methoxy-4-oxo-4,9-dihydrothieno[2,3-b]quinoline-2-carbonitrile] |
